Patent US8093028B2, “Engineered glycosyltransferases with expanded substrate specificity” (Wisconsin Alumni Research Foundation, priority 2007, dated 2012)

Legend:
Format in all cases: biochemical
OleD P67T/S132F/A242V [1] = biological target: T1, OleD P67T/S132F/A242V (Streptomyces antibioticus, UniProt Q53685, A242V/P67T/S132F); test: Rate of glucoside formation with acceptors (RP-HPLC); conditions: for Rate of glucoside formation, P67T/S132F/A242V: 200 μM acceptor, 1 mM UDPG; for Fold-improvement compared to WT OleD: rate of P67T/S132F/A242V versus WT
T1 construct: made in house; host or cells: E. coli (site-directed mutant of pET28/OleD)
Procedure: Enzyme assays for the determination of glycosyl transfer rate to FIG. 1: 4, Table 1: 27-32 were carried out in a total volume of 500 μl 50 mM Tris-HCl (pH8.0) containing 5 mM MgCl2, 200 μM acceptor, 1 mM UDPG, and 50 μg pure enzyme. Aliquots (100 μl) were removed between 0 and 30 min, at which time product formation was still linear with respect to time, and quenched with 90 μl of an 8:1 mixture of ice-cold MeOH/HCl, and centrifuged at 14,000 rpm for 10 min. Supernatants were analyzed by analytical reverse-phase HPLC with a 250 mm×4.6 mm Gemini […] C18 column (Phenomenex, Torrance, Calif.) using a gradient of 10-90% CH3CN in 0.1% trifluoroacetic acid (TFA)/H2O in 20 min at 1 ml/min, with detection at 254 nm. HPLC peak areas were integrated, and the product concentration calculated as a percent of the total peak area. Product identity was confirmed by co-elution with a commercial standard when available and, in all cases, by LC-MS (FIG. 8). […]
(§1) Enzyme reactions were carried out in a total volume of 500 μl 50 mM Tris-HCl (pH8.0) containing 5 mM MgCl2, 200 μM acceptor, 1 mM UDPG, and 50 μg pure enzyme. Aliquots (100 μl) were removed between 0 and 30 min, and quenched with 90 μl of an 8:1 mixture of ice-cold MeOH/HCl for activity towards FIG. 1: 4, Table 1: 27-32, or with 90 μl of ice-cold MeOH for activity towards FIG. 1: 1, and the samples centrifuged at 14,000 rpm for 10 min.
(§2) For determination of activity to FIG. 1: 4, Table 1: 27-32, supernatants were analyzed by analytical reverse-phase HPLC with a Gemini 5μ C18 column (Phenomenex) using a gradient of 10-90% CH3CN in 0.1% trifluoroacetic acid (TFA)/H2O in 20 min, with detection at 254 nm. HPLC peak areas were integrated, and the product concentration calculated as a percent of the total peak area. All products were characterized by LC-MS. Mass spectra were obtained using electrospray ionization on an Agilent 1100 HPLC-MSD SL quadrapole mass spectrometer connected to a UV/Vis diode array detector. For LC-MS analysis, quenched reaction mixtures (see below) were analyzed by analytical reverse-phase HPLC with a 250 mm×4.6 mm Gemini 5μ C18 column (Phenomenex, Torrance, Calif.) using a gradient of 10-90% CH3CN in 0.1% formic acid/H2O in 20 min at 1 ml/min, with detection at 254 nm.
(§3) For determination of activity toward FIG. 1: 1, centrifuged reaction mixtures were analyzed by analytical reverse-phase HPLC with a Gemini 5μ C18 column (Phenomenex) using a gradient of 0-90% CH3CN in 50 mM NH3COOH over 30 min at 1 ml/min. Compounds FIG. 1: 1 and 3 were detected by evaporative light scattering detection (ELSD) using a drift tube temperature of 105° C. and a nitrogen flow of 2.5 ml/min. All products were characterized by APCI LC-MS on an Agilent 1100 Series LC/MSD quadrapole mass spectrometer connected to a UV detector. Quenched reaction mixtures were analyzed by reverse-phase HPLC with a 10 mm×4.6 mm Zorbax Extend 5μ C18 Analytical Guard Column (Agilent Technologies) using an isocratic gradient of 80% MeOH in 2 min at 1 ml/min, with detection at 254 nm.

WT OleD = biological target: T2, WT OleD (Streptomyces antibioticus, UniProt Q53685, P55A/R82V/R83E/T84P); test: as above; conditions: 200 μM acceptor, 1 mM UDPG
T2 construct: made in house; host or cells: E. coli BL21(DE3)pLysS, plasmid pET28/OleD
Procedure: (§4) Enzyme assays for the determination of glycosyl transfer rate to FIG. 1: 4, Table 1: 27-32 were carried out in a total volume of 500 μl 50 mM Tris-HCl (pH8.0) containing 5 mM MgCl2, 200 μM acceptor, 1 mM UDPG, and 50 μg pure enzyme. Aliquots (100 μl) were removed between 0 and 30 min, at which time product formation was still linear with respect to time, and quenched with 90 μl of an 8:1 mixture of ice-cold MeOH/HCl, and centrifuged at 14,000 rpm for 10 min. Supernatants were analyzed by analytical reverse-phase HPLC with a 250 mm×4.6 mm Gemini […] C18 column (Phenomenex, Torrance, Calif.) using a gradient of 10-90% CH3CN in 0.1% trifluoroacetic acid (TFA)/H2O in 20 min at 1 ml/min, with detection at 254 nm. HPLC peak areas were integrated, and the product concentration calculated as a percent of the total peak area. Product identity was confirmed by co-elution with a commercial standard when available and, in all cases, by LC-MS (FIG. 8).
(§5) Reaction conditions for assay of macrolide glycosylation were identical to that for FIG. 1: 1, except that typically, less enzyme was used (1-10 μg) and reactions were quenched with an equal volume of ice-cold MeOH. Centrifuged reaction mixtures were analyzed by analytical reverse-phase HPLC with a Gemini 5μ C18 column (Phenomenex) using a gradient of 0-90% CH3CN in 50 mM NH3COOH over 30 min at 1 ml/min. Products and acceptor macrolide were detected by evaporative light scattering detection (ELSD) using a drift tube temperature of 105° C. and a nitrogen flow of 2.5 ml/min. All products were characterized by APCI LC-MS on an Agilent 1100 Series LC/MSD quadrapole mass spectrometer connected to a UV detector. Quenched reaction mixtures were analyzed by reverse-phase HPLC with a 10 mm×4.6 mm Zorbax Extend 5μ C18 Analytical Guard Column (Agilent Technologies) using an isocratic gradient of 80% MeOH in 2 min at 1 ml/min, with detection at 254 nm.
as §1, §2, §3

OleD P67T = biological target: T3, OleD P67T (Streptomyces antibioticus, UniProt Q53685, P55A/P67T/R82V/R83E/T84P); test: as above; conditions: 200 μM acceptor, 1 mM UDPG
T3 construct: made in house; host or cells: E. coli (site-directed mutant of pET28/OleD)
Procedure: as §4, §5, §1, §2, §3

OleD S132F = biological target: T4, OleD S132F (Streptomyces antibioticus, UniProt Q53685, P55A/R82V/R83E/S132F/T84P); test: as above; conditions: for Rate of glucoside formation, S132F: 200 μM acceptor, 1 mM UDPG
T4 construct: made in house; host or cells: E. coli (site-directed mutant of pET28/OleD)
Procedure: as §4, §5, §1, §2, §3

OleD A242V = biological target: T5, OleD A242V (Streptomyces antibioticus, UniProt Q53685, A242V/P55A/R82V/R83E/T84P); test: as above; conditions: 200 μM acceptor, 1 mM UDPG
T5 construct: made in house; host or cells: E. coli BL21(DE3)pLysS (error-prone PCR clone in pET28a)
Procedure: as §4, §5, §1, §2, §3

OleD P67T/S132F/A242V [2] = biological target: T1, OleD P67T/S132F/A242V; conditions: Table 3; 4-Me-umb (4) as acceptor, end point assay
Procedure: Reactions were carried out as described above with the following exceptions. The total volume was 50 μl and the acceptor FIG. 1: 4 was at 50 μM and the NDP-sugar at ˜500 μM. The NDP-sugars were used directly from RmlA-catalyzed reactions. […] Reactions were incubated at 25° C. for 3 h.
The total volume was 50 μl and the acceptor FIG. 1: 4 or FIG. 1: 1 was at 50 μM and the NDP-sugar at ˜500 μM. The NDP-sugars were used directly from RmlA-catalyzed reactions. […] Reactions were incubated at 25° C. for 3 h.
For activity toward FIG. 1: 4, aliquots (25 μl) were quenched with 25 μl of an 8:1 mixture of ice-cold MeOH/HCl, and centrifuged at 14,000 rpm for 10 min. […] HPLC peak areas were integrated, and the product concentration calculated as a percent of the total peak area. All products were characterized by LC-MS. Mass spectra were obtained using electrospray ionization on an Agilent 1100 HPLC-MSD SL quadrapole mass spectrometer connected to a UV/Vis diode array detector.

Molecule | Rate of glucoside formation, P67T/S132F/A242V (OleD P67T/S132F/A242V [1]) | Fold-improvement compared to WT OleD (OleD P67T/S132F/A242V [1]; UDPG donor) [fold] | Rate of glucoside formation, WT (WT OleD) | Rate of glucoside formation, WT (WT OleD; listed as Table 1: 28) | Rate of glucoside formation, P67T (OleD P67T) | Rate of glucoside formation, S132F (OleD S132F) | Rate of glucoside formation, A242V (OleD A242V) | glucosylation rate, fold less than the WT enzyme (OleD P67T/S132F/A242V [1]; UDPG donor) [fold] | activity, fold more than WT OleD (OleD S132F; UDPG donor) [fold] | Fold-improvement compared to WT OleD (OleD P67T/S132F/A242V [1]; UDPG donor, listed as Table 1: 27) [fold] | Conversion rates (%), P67T/S132F/A242V (OleD P67T/S132F/A242V [2]) [%]
O=C(O)c1cc2ccc(O)cc2oc1=O [7-hydroxycoumarin-3-carboxylic acid (28), 7-hydroxycoumarin-3-carboxylic acid] | 0.62 mmols/product formed/min/μg enzyme × 10^3 | 62 | 0.01 mmols/product formed/min/μg enzyme × 10^3 | essentially non-detectable substrates | 0.022 mmols/product formed/min/μg enzyme × 10^3 | 0.022 mmols/product formed/min/μg enzyme × 10^3 | 0.01 mmols/product formed/min/μg enzyme × 10^3 |  |  |  | 
O=c1c(-c2ccc(O)cc2)coc2cc(O)cc(O)c12 [genistein (32), genistein] | 26 mmols/product formed/min/μg enzyme × 10^3 | 7.7 | 3.4 mmols/product formed/min/μg enzyme × 10^3 |  | 28.8 mmols/product formed/min/μg enzyme × 10^3 | 8.8 mmols/product formed/min/μg enzyme × 10^3 | 14.1 mmols/product formed/min/μg enzyme × 10^3 |  |  |  | 
CO[C@H]1C[C@H](O[C@H]2[C@H](C)[C@@H](O[C@@H]3O[C@H](C)C[C@H](N(C)C)[C@H]3O)[C@@H](C)C[C@@]3(CO3)C(=O)[C@H](C)[C@@H](O)[C@@H](C)[C@@H](C)OC(=O)[C@@H]2C)O[C@@H](C)[C@@H]1O [oleandomycin (1), oleandomycin] | 13 mmols/product formed/min/μg enzyme × 10^3 | 0.02 | 700 mmols/product formed/min/μg enzyme × 10^3 |  | 20 mmols/product formed/min/μg enzyme × 10^3 | 1487 mmols/product formed/min/μg enzyme × 10^3 | 70 mmols/product formed/min/μg enzyme × 10^3 | ~54 | ~2 |  | 
O=c1c(O)c(-c2ccc(O)cc2)oc2cc(O)cc(O)c12 [kaempferol (30), kaempferol] | 28 mmols/product formed/min/μg enzyme × 10^3 | 2.1 | 13.2 mmols/product formed/min/μg enzyme × 10^3 |  | 99.9 mmols/product formed/min/μg enzyme × 10^3 | 23 mmols/product formed/min/μg enzyme × 10^3 | 15.3 mmols/product formed/min/μg enzyme × 10^3 |  |  |  | 
O=C(O)Cc1cc(=O)oc2cc(O)ccc12 [7-hydroxycoumarin-4-acetic acid (27), 7-hydroxycoumarin-4-acetic acid] | 3.6 mmols/product formed/min/μg enzyme × 10^3 | >180 | essentially non-detectable substrates |  | 0.22 mmols/product formed/min/μg enzyme × 10^3 | 0.08 mmols/product formed/min/μg enzyme × 10^3 | 0.16 mmols/product formed/min/μg enzyme × 10^3 |  |  | > 180 | 
O=c1c(-c2ccc(O)cc2)coc2cc(O)ccc12 [daidzein (31), daidzein] | 24 mmols/product formed/min/μg enzyme × 10^3 | 5.7 | 4.2 mmols/product formed/min/μg enzyme × 10^3 |  | 16.0 mmols/product formed/min/μg enzyme × 10^3 | 5.5 mmols/product formed/min/μg enzyme × 10^3 | 8.5 mmols/product formed/min/μg enzyme × 10^3 |  |  |  | 
UDP-2-amino-glc [UDP-2-amino-glc (19)] |  |  |  |  |  |  |  |  |  |  | 24
